Measured values published in ChEMBL document CHEMBL6087458, “The Discovery of a Novel AXL/Triple Angiokinase Inhibitor Based on 6-Chloro-Substituted Indolinone and Side Chain Methyl Substitution Inhibiting Pancreatic Cancer Growth and Metastasis” (J Med Chem, 2025).

Legend:
[1] = Cytotoxicity against mouse NIH/3T3 cells assessed as cell viability incubated for 72 hrs by MTT assay; format: toxicity, cell-based, NIH3T3
[2] = Cytotoxicity against human HUVEC cells assessed as cell viability incubated for 72 hrs by MTT assay; format: toxicity, cell-based
BXPC-3 = assay: cells; settings: Homo sapiens, BXPC-3, 72 h
Description: Antiproliferative activity against human BXPC-3 cells assessed as cell viability incubated for 72 hrs by MTT assay

MDA-MB-231 = assay: cells; settings: Homo sapiens, MDA-MB-231, 72 h
Description: Antiproliferative activity against human MDA-MB-231 cells assessed as cell viability incubated for 72 hrs by MTT assay

A549 = assay: cells; settings: Homo sapiens, A549, 72 h
Description: Antiproliferative activity against human A549 cells assessed as cell viability incubated for 72 hrs by MTT assay

| Structure (SMILES) | IC50 at 72 h [1] | IC50 at 72 h [2] | IC50 (BXPC-3) | IC50 (MDA-MB-231) | IC50 (A549) |
| --- | --- | --- | --- | --- | --- |
| COC(=O)c1ccc2c(c1)NC(=O)/C2=C(\Nc1ccc(N(C)C(=O)C(C)N2CCNCC2)cc1)c1ccccc1 (racemic) | > 10 µM | > 10 µM | > 10 µM | > 10 µM | – |
| COC(=O)c1ccc2c(c1)NC(=O)/C2=C(\Nc1ccc(N(C)C(=O)CN2CCC(N(C)C)CC2)cc1)c1ccccc1 | 3.51 µM | 2.97 µM | 2.56 µM | 6.34 µM | – |
| CC(C(=O)N(C)c1ccc(N/C(=C2\C(=O)Nc3cc(Br)ccc32)c2ccccc2)cc1)N1CCCN(C)CC1 (racemic) | 3.9 µM | 2.15 µM | 1.95 µM | 1.86 µM | – |
| COC(=O)c1ccc2c(c1)NC(=O)/C2=C(\Nc1ccc(N(C)C(=O)C(C)N2CCC(N(C)C)CC2)cc1)c1ccccc1 (racemic) | 1.99 µM | 1.08 µM | 1.69 µM | 5.54 µM | – |
| COC(=O)c1ccc2c(c1)NC(=O)/C2=C(\Nc1ccc(N(C)C(=O)C(C)N2CCOCC2)cc1)c1ccccc1 (racemic) | > 10 µM | > 10 µM | > 10 µM | > 10 µM | – |
| CC(C(=O)N(C)c1ccc(N/C(=C2\C(=O)Nc3cc(Br)ccc32)c2ccccc2)cc1)N1CCSCC1 (racemic) | > 10 µM | > 10 µM | > 10 µM | > 10 µM | – |
| COC(=O)c1ccc2c(c1)NC(=O)/C2=C(\Nc1ccc(N(C)C(=O)C(C)N2CCN(C)CC2)cc1)c1ccccc1 (racemic) | 2.25 µM | 1.43 µM | 3.74 µM | 5.34 µM | – |
| COC(=O)c1ccc2c(c1)NC(=O)/C2=C(\Nc1ccc(N(C)C(=O)C(C)N2CCN(CCO)CC2)cc1)c1ccccc1 (racemic) | 1.37 µM | 1.09 µM | 2.47 µM | 4.96 µM | – |
| CC(C(=O)N(C)c1ccc(N/C(=C2\C(=O)Nc3cc(Br)ccc32)c2ccccc2)cc1)N1CCN(C)CC1 (racemic) | 2.14 µM | 0.95 µM | 1.89 µM | 1.44 µM | – |
| CCN1CCN(C(C)C(=O)N(C)c2ccc(N/C(=C3\C(=O)Nc4cc(Br)ccc43)c3ccccc3)cc2)CC1 (racemic) | 1.87 µM | 0.67 µM | 2.44 µM | 2.47 µM | – |
| CN1CCCN(CC(=O)N(C)c2ccc(N/C(=C3\C(=O)Nc4cc(Br)ccc43)c3ccccc3)cc2)CC1 | 5.98 µM | 3.19 µM | 2.15 µM | 3.29 µM | – |
| CCN1CCN(C(C)C(=O)N(C)c2ccc(N/C(=C3\C(=O)Nc4cc(C(=O)OC)ccc43)c3ccccc3)cc2)CC1 (racemic) | 2.1 µM | 1.5 µM | 1.64 µM | 5.07 µM | – |
| CC(C(=O)N(C)c1ccc(N/C(=C2\C(=O)Nc3cc(Cl)ccc32)c2ccccc2)cc1)N1CCC(N(C)C)CC1 (racemic) | 0.98 µM | 0.83 µM | 2.04 µM | 1.98 µM | – |
| CN(C(=O)CN1CCOCC1)c1ccc(N/C(=C2\C(=O)Nc3cc(Br)ccc32)c2ccccc2)cc1 | > 10 µM | > 10 µM | > 10 µM | > 10 µM | – |
| COC(=O)c1ccc2c(c1)NC(=O)/C2=C(\Nc1ccc(N(C)C(=O)C(C)N2CCSCC2)cc1)c1ccccc1 (racemic) | > 10 µM | > 10 µM | > 10 µM | > 10 µM | – |
| CC(C(=O)N(C)c1ccc(N/C(=C2\C(=O)Nc3cc(Br)ccc32)c2ccccc2)cc1)N(C)CCN(C)C (racemic) | 0.77 µM | 1.77 µM | 3.74 µM | 4.54 µM | – |
| CC(=O)O[C@H]1C(=O)[C@@]2(C)[C@H]([C@H](OC(=O)c3ccccc3)[C@]3(O)C[C@H](OC(=O)[C@H](O)[C@@H](NC(=O)c4ccccc4)c4ccccc4)C(C)=C1C3(C)C)[C@]1(OC(C)=O)CO[C@@H]1C[C@@H]2O [PACLITAXEL] | – | – | – | – | 1.34 µM |
| COC(=O)c1ccc2c(c1)NC(=O)/C2=C(\Nc1ccc(N(C)C(=O)[C@H](C)N2CCN(C)CC2)cc1)c1ccccc1 | 1.17 µM | 1.65 µM | – | – | – |
| COC(=O)c1ccc2c(c1)NC(=O)/C2=C(\Nc1ccc(N(C)C(=O)CN2CCOCC2)cc1)c1ccccc1 | > 10 µM | > 10 µM | > 10 µM | > 10 µM | – |
| CC(C(=O)N(C)c1ccc(N/C(=C2\C(=O)Nc3cc(Cl)ccc32)c2ccccc2)cc1)N1CCN(C)CC1 (racemic) | 1.43 µM | 0.84 µM | 1.89 µM | 1.24 µM | – |

| Structure (SMILES) | IC50 at 72 h [1] | IC50 at 72 h [2] | IC50 (BXPC-3) | IC50 (MDA-MB-231) | IC50 (A549) |
| --- | --- | --- | --- | --- | --- |
| CN1CCN(CC(=O)N(C)c2ccc(N/C(=C3\C(=O)Nc4cc(Cl)ccc43)c3ccccc3)cc2)CC1 | 3.11 µM | 1.8 µM | 2.98 µM | 4.54 µM | – |
| CN(C(=O)CN1CCN(CCO)CC1)c1ccc(N/C(=C2\C(=O)Nc3cc(Br)ccc32)c2ccccc2)cc1 | 2.95 µM | 2.49 µM | 3.57 µM | 3.21 µM | – |
| CN(C)CCN(C)CC(=O)N(C)c1ccc(N/C(=C2\C(=O)Nc3cc(Br)ccc32)c2ccccc2)cc1 | 5.89 µM | 4.71 µM | 4.22 µM | 4.96 µM | – |
| CC(C(=O)N(C)c1ccc(N/C(=C2\C(=O)Nc3cc(Br)ccc32)c2ccccc2)cc1)N1CCC(N(C)C)CC1 (racemic) | 1.59 µM | 1.11 µM | 1.74 µM | 1.49 µM | – |
| CC(C(=O)N(C)c1ccc(N/C(=C2\C(=O)Nc3cc(Cl)ccc32)c2ccccc2)cc1)N1CCCN(C)CC1 (racemic) | 2.2 µM | 0.69 µM | 1.74 µM | 2.04 µM | – |
| COC(=O)c1ccc2c(c1)NC(=O)/C2=C(\Nc1ccc(N(C)C(=O)CN(C)CCN(C)C)cc1)c1ccccc1 | 3.57 µM | 2.97 µM | 6.01 µM | > 10 µM | – |
| CC(C(=O)N(C)c1ccc(N/C(=C2\C(=O)Nc3cc(Cl)ccc32)c2ccccc2)cc1)N1CCSCC1 (racemic) | > 10 µM | > 10 µM | > 10 µM | > 10 µM | – |
| CCN1CCN(CC(=O)N(C)c2ccc(N/C(=C3\C(=O)Nc4cc(Cl)ccc43)c3ccccc3)cc2)CC1 | 1.95 µM | 1.85 µM | 1.78 µM | 3.19 µM | – |
| CN1CCCN(CC(=O)N(C)c2ccc(N/C(=C3\C(=O)Nc4cc(Cl)ccc43)c3ccccc3)cc2)CC1 | 4.52 µM | 4.98 µM | 3.14 µM | 3.87 µM | – |
| COC(=O)c1ccc2c(c1)NC(=O)/C2=C(\Nc1ccc(N(C)C(=O)C(C)N(C)CCN(C)C)cc1)c1ccccc1 (racemic) | 2.57 µM | 2 µM | 5.78 µM | 5.98 µM | – |
| CCN1CCN(CC(=O)N(C)c2ccc(N/C(=C3\C(=O)Nc4cc(C(=O)OC)ccc43)c3ccccc3)cc2)CC1 | 3.44 µM | 2.72 µM | 2.31 µM | 5.98 µM | – |
| CC(C(=O)N(C)c1ccc(N/C(=C2\C(=O)Nc3cc(Cl)ccc32)c2ccccc2)cc1)N1CCOCC1 (racemic) | > 10 µM | > 10 µM | > 10 µM | > 10 µM | – |
| COC(=O)c1ccc2c(c1)NC(=O)/C2=C(\Nc1ccc(N(C)C(=O)[C@@H](C)N2CCN(C)CC2)cc1)c1ccccc1 | 3.75 µM | 1.36 µM | – | – | – |
| CN(C(=O)CN1CCC(N(C)C)CC1)c1ccc(N/C(=C2\C(=O)Nc3cc(Br)ccc32)c2ccccc2)cc1 | 2.31 µM | 1.94 µM | 3.02 µM | 2.97 µM | – |
| CC(C(=O)N(C)c1ccc(N/C(=C2\C(=O)Nc3cc(Br)ccc32)c2ccccc2)cc1)N1CCN(CCO)CC1 (racemic) | 2.11 µM | 1.98 µM | 2.31 µM | 2.06 µM | – |
| COC(=O)c1ccc2c(c1)NC(=O)/C2=C(\Nc1ccc(N(C)C(=O)C(C)N2CCCN(C)CC2)cc1)c1ccccc1 (racemic) | 2.93 µM | 1.81 µM | 1.66 µM | 5.78 µM | – |
| CCN1CCN(CC(=O)N(C)c2ccc(N/C(=C3\C(=O)Nc4cc(Br)ccc43)c3ccccc3)cc2)CC1 | 3.2 µM | 1.57 µM | 3.57 µM | 3.91 µM | – |
| COC(=O)c1ccc2c(c1)NC(=O)/C2=C(\Nc1ccc(N(C)C(=O)CN2CCCN(C)CC2)cc1)c1ccccc1 | 3.82 µM | 2.91 µM | 3.73 µM | 7.83 µM | – |
| CN(C(=O)CN1CCN(CCO)CC1)c1ccc(N/C(=C2\C(=O)Nc3cc(Cl)ccc32)c2ccccc2)cc1 | 2.2 µM | 1.65 µM | 1.54 µM | 1.35 µM | – |
